Reference: PubChem BioAssay (NCI)
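Grown in 96-well plates, cells were treated for 48 hours with each compound at five concentrations. Insufficient inhibition: endpoint recorded as highest concentration tested. Abbreviation: GI50, concentration required for 50% inhibition of growth. At the TGI there is no net growth.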

Experiments:
Experiment in all cases: NCI-60 cell line screen, 48 h
[1] = system: T-47D breast
[2] = system: OVCAR-5 ovarian
[3] = system: BT-549 breast
[4] = system: A498 renal
[5] = system: NCI/ADR-RES ovarian
[6] = system: IGROV1 ovarian
[7] = system: COLO 205 colon
[8] = system: 786-0 renal
[9] = system: UACC-62 melanoma
[10] = system: CCRF-CEM leukemia
[11] = system: HT29 colon
[12] = system: SK-MEL-2 melanoma
[13] = system: MDA-MB-435
[14] = system: SW-620 colon
[15] = system: HCT-15 colon
[16] = system: MCF7 breast
[17] = system: SNB-19 CNS
[18] = system: U251 CNS
[19] = system: HS 578T breast
[20] = system: HCT-116 colon
[21] = system: OVCAR-8 ovarian
[22] = system: HL-60(TB) leukemia
[23] = system: M14 melanoma
[24] = system: UO-31 renal
[25] = system: UACC-257 melanoma
[26] = system: EKVX NSCLC
[27] = system: PC-3 prostate
[28] = system: SN12C renal
[29] = system: RPMI-8226 leukemia
[30] = system: NCI-H522 lung
[31] = system: NCI-H23 lung
[32] = system: SK-MEL-5 melanoma
[33] = system: CAKI-1 renal
[34] = system: SF-539 CNS
[35] = system: RXF 393 renal
[36] = system: HCC-2998 colon
[37] = system: MALME-3M melanoma
[38] = system: K-562 leukemia
[39] = system: MOLT-4 leukemia
[40] = system: OVCAR-3 ovarian
[41] = system: OVCAR-4 ovarian
[42] = system: ACHN renal
[43] = system: KM12 colon
[44] = system: SNB-75 CNS
[45] = system: LOX IMVI melanoma
[46] = system: SF-295 CNS
[47] = system: MDA-MB-231 breast
[48] = system: A549 NSCLC
[49] = system: NCI-H460 lung
[50] = system: SK-OV-3 ovarian
[51] = system: NCI-H226 lung
[52] = system: HOP-62 NSCLC
[53] = system: HOP-92 NSCLC
[54] = system: DU-145 prostate
[55] = system: TK-10 renal
[56] = system: SK-MEL-28 melanoma
[57] = system: SF-268 CNS

CN(C)CCNc1c2c(c(NCCN(C)C)c3c(CN(C)C)c[nH]c13)C(=O)c1ccccc1C2=O
GI50 [1]: 22.3 µM | TGI [1]: 46.8 µM | GI50 [2]: 16 µM | TGI [2]: 34.6 µM | GI50 [3]: 18.2 µM | TGI [3]: 36.9 µM | GI50 [4]: 18.7 µM | TGI [4]: 33.6 µM | GI50 [5]: 4.53 µM | TGI [5]: 20.5 µM | GI50 [6]: 2.22 µM | TGI [6]: 11.7 µM | GI50 [7]: 13.6 µM | TGI [7]: > 53.8 µM | GI50 [8]: 0.356 µM | TGI [8]: 8.91 µM | GI50 [9]: 14.7 µM | TGI [9]: 29.9 µM | GI50 [10]: 0.639 µM | TGI [10]: 2.58 µM | GI50 [11]: 2.56 µM | TGI [11]: 27.4 µM | GI50 [12]: 18.3 µM | TGI [12]: 42.9 µM | GI50 [13]: 2.75 µM | TGI [13]: 8.04 µM | GI50 [14]: 2.7 µM | TGI [14]: 9.72 µM | GI50 [15]: 1.35 µM | TGI [15]: 6.98 µM | GI50 [16]: 1.81 µM | TGI [16]: 10 µM | GI50 [17]: 16.1 µM | TGI [17]: 40 µM | GI50 [18]: 2.57 µM | TGI [18]: 10.4 µM | GI50 [19]: 7.49 µM | TGI [19]: 19 µM | GI50 [20]: 0.676 µM | TGI [20]: > 100 µM | GI50 [21]: 2.16 µM | TGI [21]: 14.2 µM | GI50 [22]: 3.02 µM | TGI [22]: 7.48 µM | GI50 [23]: 2.48 µM | TGI [23]: 7.57 µM | GI50 [24]: 3.76 µM | TGI [24]: 16.8 µM | GI50 [25]: 9.15 µM | TGI [25]: > 27.4 µM | GI50 [26]: 4.31 µM | TGI [26]: 17.3 µM | GI50 [27]: 0.612 µM | TGI [27]: 3.2 µM | GI50 [28]: 1.18 µM | TGI [28]: 7.32 µM | GI50 [29]: 0.545 µM | TGI [29]: 2.26 µM | GI50 [30]: 3.39 µM | TGI [30]: 18.7 µM | GI50 [31]: 3.91 µM | TGI [31]: 14.6 µM | GI50 [32]: 5.65 µM | TGI [32]: 10.6 µM | GI50 [33]: 4.73 µM | TGI [33]: 11.5 µM | GI50 [34]: 3.85 µM | TGI [34]: 10.2 µM | GI50 [35]: 3.71 µM | TGI [35]: 19.5 µM | GI50 [36]: 2.14 µM | TGI [36]: 8.61 µM | GI50 [37]: 6.5 µM | TGI [37]: 15.7 µM | GI50 [38]: 2.59 µM | TGI [38]: 14.6 µM | GI50 [39]: 0.582 µM | TGI [39]: > 38.1 µM | GI50 [40]: 4.29 µM | TGI [40]: 23.9 µM | GI50 [41]: 8.23 µM | TGI [41]: 34.1 µM | GI50 [42]: 1.15 µM | TGI [42]: 5.88 µM | GI50 [43]: 1.6 µM | TGI [43]: 7.3 µM | GI50 [44]: 19.2 µM | TGI [44]: 40.9 µM | GI50 [45]: 1.05 µM | TGI [45]: 2.73 µM | GI50 [46]: 3.14 µM | TGI [46]: 9.83 µM | GI50 [47]: 1.61 µM | TGI [47]: 9.39 µM | GI50 [48]: 2.88 µM | TGI [48]: 9.98 µM | GI50 [49]: 2.2 µM | TGI [49]: 9.49 µM | GI50 [50]: 17.4 µM | TGI [50]: 40.2 µM | GI50 [51]: 15 µM | TGI [51]: 35.5 µM | GI50 [52]: 0.946 µM | TGI [52]: 11.9 µM | GI50 [53]: 2.91 µM | TGI [53]: 15.8 µM | GI50 [54]: 4.2 µM | TGI [54]: 15.1 µM | GI50 [55]: 2.08 µM | TGI [55]: 7.06 µM | GI50 [56]: 16.7 µM | TGI [56]: 38.2 µM | GI50 [57]: 5.39 µM | TGI [57]: 22.1 µM
